One series deals with MCF-7 cell line. The series is described as follows: MTT cytotoxic / antiproliferative activity against MCF-7 cell line. As to conditions: for IC50: MTT assay, MCF-7 breast adenocarcinoma cells, 24 h treatment; for fold more potent antiproliferative activity than the reference STU: MCF-7, relative to STU IC50. The class given is cell-based. As to the method: S4.2.1. Cytotoxic activity evaluation […]
adenocarcinoma (MCF-7) cell line. Cell viability assay was assessed using MTT assay […]
under 5% CO2. After incubation, the cells were treated with different concentrations of the test hybrid 5 and 6a-h and incubated for 24 h, then 20 µl of MTT solution at 5 […]
Dimethyl sulphoxide (DMSO) in […]
volume of 100 µl was added to each well to dissolve the purple formazan that had formed. The color intensity of the formazan product, which represents the growth […]
570 nm absorbance. The experimental conditions were carried out with at least three replicates, and the experiments were repeated at least three times. […]
On the technique in general: Tetrazolium dyes change colour on reduction, which living cells bring about.

Series [1] deals with MCF-7 cells. The series is described as follows: Cell cycle analysis by flow cytometry (PI staining) in MCF-7 cells. The class given is cell-based. As to conditions: MCF-7, 1.87 μM, 48 h. The source says: The cell cycle is related to a series of events responsible for cell division and duplication.[42] The cell cycle presents three distinct phases: G1, S and G2/M phase.[43] Due to the importance of the cell cycle in the process of tumor progression, we evaluated if the cell growth inhibition in MCF-7 occurred due to cell cycle arrest using FACS method. In the present study, flow cytometric measurement was utilized to investigate the effect of quinoline tethered [2-(4-methoxyphenyl)-cis-vinyl] triamide 6f on cellular cycle progression in tested breast cancer cells. In the test, MCF-7 cells were treated with quinoline tethered [2-(4-methoxyphenyl)-cis-vinyl] triamide 6f at a concentration of 1.87 μM, then incubated for 48 h. The cellular cycle distribution was analyzed to identify the definite phase at which quinoline tethered [2-(4-methoxyphenyl)-cis-vinyl] triamide 6f can arrest the cell cycle. […] It is observed that the percentage of cells at G1 phase was increased by 1.2-fold compared to controls (Fig. 3).
S4.2.1. Cytotoxic activity evaluation
To measure the cytotoxic actvity of the prepared derivatives 5 and 6a-h in breast adenocarcinoma (MCF-7) cell line. Cell viability assay was assessed using MTT assay method. Cells at density of 1 x 104 were seeded in a 96-well plate at 37 °C for 24 h under 5% CO2. After incubation, the cells were treated with different concentrations of the test hybrid 5 and 6a-h and incubated for 24 h, then 20 µl of MTT solution at 5 mg/mL was applied and incubated for 4 h at 37 °C. […] The color intensity of the formazan product, which represents the growth condition of the cells, is quantified by using an ELISA plate reader (EXL 800, USA) at 570 nm absorbance. […]
Cell cycle analysis in MCF-7 cells was investigated using fluorescent […] (BioVision EZCellTM Cell Cycle Analysis Kit Catalog #K920) by flow cytometry assay. […] The samples were immediately analyzed using Facs Calibur flow cytometer (Becton and Dickinson, Heidelberg, […]

In series [2] the test system is MCF-7 cells. Put plainly: Annexin V-FITC/PI apoptosis assay by flow cytometry in MCF-7 cells. It counts as cell-based. As to conditions: 48 h. As to the method: Apoptosis play an important role in organogenesis and in crafting complex tissues during embryonic growth, and in the preservation of tissue homeostasis in adult organism.[44] Numerous clinical disorders, including cancer, autoimmune illness and infectious diseases, are characterised by the deregulation of apoptosis.[45] To ensure the ability of quinoline tethered [2-(4-methoxyphenyl)-cis-vinyl] triamide 6f to activate apoptosis, flow cytometric measurement was carried out using Annexin V which binds to phophatidylserine declared on the outer layed of apoptotic cells and appears fluorescent green and PI which stains DNA and penetrates only dead cells. […] Meanwhile, the proportion of late apoptotic cells rose from 0.21% to 16.65% compared to DMOS controls (Fig. 4). […]
S4.2.3. Apoptosis assay for compound 6f
Apoptosis in MCF-7 cells was investigated using fluorescent Annexin V-FITC/ PI detection kit (BioVision Annexin V-FITC Apoptosis Detection Kit, Catalog #: K101) by flow cytometry assay. MCF-7 cells at a density of 2 × 10^5 per well were treated with compound 6f at the IC50 (µM) for 48 h, then the cells were harvested and stained with Annexin V-FITC/ PI dye for 15 min in the dark at 37 °C. The samples were immediately analyzed using FACS Calibur flow cytometer (Becton and Dickinson, […]
S4.2.4. EGFR kinase Assay […]
according to manufacturer’s instructions using # BPS Bioscience EGFR Kinase Assay
On the technique in general: A flow cytometer gives signals particle by particle.

The subject of series [3] is MCF-7 cells. Put plainly: Mitochondrial membrane potential (MMP) by flow cytometry in MCF-7 cells. It counts as cell-based. The text has this: A major part of apoptosis process is played by mitochondria.[46] Several active proteins such as cytochrome C and factor that induces apoptosis are two of the active proteins found in mitochondria.[47] The release of such proteins after inhibition of mitochondrial membrane potential (MMP) is crucial in the propagation of apoptosis.[48] […] This decrease in MMP was linked to an increase in Annexin V positive cells. […] According to this, quinoline tethered [2-(4-methoxyphenyl)-cis-vinyl] triamide 6f cause MCF-7 cells to become dysfunction in their mitochondria, which in turn trigger apoptotic cellular death. These outcomes were consistent with early findings that EGFR-TK inhibitors promote apoptosis via the mitochondrial route.

The next series concerns the target T1, EGFR tyrosine kinase (Homo sapiens, UniProt P00533).
T1 construct: purchased BPS Bioscience 40321
The series is described as follows: EGFR kinase assay (BPS Bioscience EGFR Kinase Assay Kit). The class given is biochemical. As to conditions: read-out: EGFR inhibitory activity IC50. The source says: immediately analyzed using FACS Calibur flow cytometer (Becton and Dickinson,
S4.2.4. EGFR kinase Assay
(1 picture or pasted object on this page, not shown here)

The structures appear in SMILES notation.

T1 sequence (P00533 25-1210): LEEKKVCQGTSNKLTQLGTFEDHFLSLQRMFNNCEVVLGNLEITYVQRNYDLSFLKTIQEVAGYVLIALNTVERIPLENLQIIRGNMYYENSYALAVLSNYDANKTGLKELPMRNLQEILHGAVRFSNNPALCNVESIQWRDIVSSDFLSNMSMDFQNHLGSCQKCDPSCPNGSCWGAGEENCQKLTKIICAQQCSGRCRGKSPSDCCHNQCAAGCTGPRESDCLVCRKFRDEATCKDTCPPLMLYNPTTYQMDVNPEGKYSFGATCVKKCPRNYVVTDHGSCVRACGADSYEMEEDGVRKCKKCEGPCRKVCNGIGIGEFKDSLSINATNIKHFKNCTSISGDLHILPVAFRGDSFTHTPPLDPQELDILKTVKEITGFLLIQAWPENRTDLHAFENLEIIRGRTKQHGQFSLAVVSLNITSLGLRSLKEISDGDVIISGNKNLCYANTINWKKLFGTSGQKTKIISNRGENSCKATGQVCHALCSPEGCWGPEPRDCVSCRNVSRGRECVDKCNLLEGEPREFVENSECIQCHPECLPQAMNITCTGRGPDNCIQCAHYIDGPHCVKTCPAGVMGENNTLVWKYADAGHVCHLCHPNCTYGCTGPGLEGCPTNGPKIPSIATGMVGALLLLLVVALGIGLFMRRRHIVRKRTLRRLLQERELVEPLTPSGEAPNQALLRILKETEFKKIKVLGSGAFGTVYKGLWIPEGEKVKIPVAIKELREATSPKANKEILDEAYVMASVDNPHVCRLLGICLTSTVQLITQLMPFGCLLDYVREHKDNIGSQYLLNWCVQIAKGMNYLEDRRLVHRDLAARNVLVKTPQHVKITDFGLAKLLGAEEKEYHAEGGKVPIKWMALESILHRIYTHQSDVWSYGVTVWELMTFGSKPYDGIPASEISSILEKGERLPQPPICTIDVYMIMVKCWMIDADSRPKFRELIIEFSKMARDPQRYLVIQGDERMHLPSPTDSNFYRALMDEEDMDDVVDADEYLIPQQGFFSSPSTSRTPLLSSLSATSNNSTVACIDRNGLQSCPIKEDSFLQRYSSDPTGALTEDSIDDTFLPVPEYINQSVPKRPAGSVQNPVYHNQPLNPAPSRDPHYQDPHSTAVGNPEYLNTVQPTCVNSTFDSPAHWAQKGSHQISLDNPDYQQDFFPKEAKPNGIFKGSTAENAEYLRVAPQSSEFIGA

`O=C(NNC(=O)c1cc(-c2ccc(Br)cc2)nc2ccccc12)/C(=C/c1ccc(Br)cc1)NC(=O)c1ccccc1` [Compound 6c, (Z)-N-(1-(4-Bromophenyl)-3-(2-(2-(4-bromophenyl)quinoline-4-carbonyl)hydrazinyl)-3-oxoprop-1-en-2-yl)benzamide] registered a melting point of 191 to 193 °C. In the series on MCF-7 cell line (Homo sapiens, MCF7, 24 h), this compound yielded an IC50 of 19.2 ± 0.62 µM.

With `COc1ccc(/C=C(\NC(=O)c2ccccc2)C(=O)NNC(=O)c2cc(-c3ccc(Br)cc3)nc3ccccc23)cc1` [Compound 6f, (Z)-N-(3-(2-(2-(4-Bromophenyl)quinoline-4-carbonyl)hydrazinyl)-1-(4-methoxyphenyl)-3-oxoprop-1-en-2-yl)benzamide], the IC50 in the series on MCF-7 cell line (Homo sapiens, MCF7, 24 h) was determined as 1.88 µM; in the series on MCF-7 cell line, 1.87 ± 0.06 µM; on EGFR tyrosine kinase, 0.19 µM. Further, the “fold more potent antiproliferative activity than the reference STU” value in the series with MCF-7 cell line is listed as 1.06–7.10 fold. In addition, the “fold increase of percentage of cells at G1 phase compared to controls” value with MCF-7 cells [1] stood at 1.2 fold. The “percentage of cells at G2/M phase (%DIP G2/M)” value in the series with MCF-7 cells [1] (control 14.04%) is 7.12%. In addition, in the series on MCF-7 cells [1] (control 34.30%), the “percentage of cells at S phase (%DIP S)” value came to 29.32%. Besides, in the series on MCF-7 cells [2] (MCF-7, 1.87 μM (IC50), lower right quadrant, DMSO control 0.66%), the “percentage of primary (early) apoptotic cells” value is given as 9.52%. Further, in the series with MCF-7 cells [2] (MCF-7, 1.87 μM (IC50), upper right quadrant, DMSO control 0.21%), the “proportion of late apoptotic cells” value came out at 16.65%. In addition, the “fold increase of early apoptosis compared to controls” value in the series with MCF-7 cells [2] (MCF-7, 1.87 μM) is given as roughly 14.4 fold. Moreover, the “fold increase of late apoptosis compared to controls” value in the series on MCF-7 cells [2] (MCF-7, 1.87 μM) is listed as roughly 79.3 fold. For the same compound, the “decrease of MMP of MCF-7 cells compared to controls (percentage change value)” value in the series with MCF-7 cells [3] (MCF-7, 1.87 μM (IC50 dose), vs DMSO controls) was determined as 57.93%. Moreover, the “MMPΨ / MCF-7 (flow cytometry reading)” value with MCF-7 cells [3] (MCF-7, 1.87 μM, control 58497) came out at 24610.

Take `O=C(NNC(=O)c1cc(-c2ccc(Br)cc2)nc2ccccc12)/C(=C/c1ccco1)NC(=O)c1ccccc1` [Compound 5, (Z)-N-(3-(2-(2-(4-Bromophenyl)quinoline-4-carbonyl)hydrazinyl)-1-(furan-2-yl)-3-oxoprop-1-en-2-yl)benzamide]: the melting point fell in the range of 188 to 190 °C. In the series with MCF-7 cell line (Homo sapiens, MCF7, 24 h), this compound showed an IC50 of 6.6 ± 0.21 µM. In the series with MCF-7 cell line, the “fold more potent antiproliferative activity than the reference STU” value is 1.06–7.10 fold.

In turn, `O=C(NNC(=O)c1cc(-c2ccc(Br)cc2)nc2ccccc12)/C(=C/c1ccc(F)cc1)NC(=O)c1ccccc1` [Compound 6a, (Z)-N-(3-(2-(2-(4-Bromophenyl)quinoline-4-carbonyl)hydrazinyl)-1-(4-fluorophenyl)-3-oxoprop-1-en-2-yl)benzamide] registered a melting point of 177 to 179 °C. Also, half-maximal inhibition with MCF-7 cell line (Homo sapiens, MCF7, 24 h) (IC50) was put at 59.8 ± 1.93 µM.

Compound `O=C(NNC(=O)c1cc(-c2ccc(Br)cc2)nc2ccccc12)/C(=C/c1ccc([N+](=O)[O-])cc1)NC(=O)c1ccccc1` [Compound 6d, (Z)-N-(3-(2-(2-(4-Bromophenyl)quinoline-4-carbonyl)hydrazinyl)-1-(4-nitrophenyl)-3-oxoprop-1-en-2-yl)benzamide] gave a melting point of 207 to 209 °C. In addition, in the series with MCF-7 cell line (Homo sapiens, MCF7, 24 h), it took 12.4 ± 0.4 µM to reach half-maximal inhibition (IC50). In addition, in the series with MCF-7 cell line, the “fold more potent antiproliferative activity than the reference STU” value is 1.06–7.10 fold.

For `Cc1ccc(/C=C(\NC(=O)c2ccccc2)C(=O)NNC(=O)c2cc(-c3ccc(Br)cc3)nc3ccccc23)cc1` [Compound 6e, (Z)-N-(3-(2-(2-(4-Bromophenyl)quinoline-4-carbonyl)hydrazinyl)-3-oxo-1-p-tolylprop-1-en-2-yl)benzamide], the melting point was 211 to 213 °C. Also, half-maximal inhibition in the series with MCF-7 cell line (Homo sapiens, MCF7, 24 h) (IC50) required 1.87 µM. In the series with MCF-7 cell line, the “fold more potent antiproliferative activity than the reference STU” value is reported as 1.06–7.10 fold and the midpoint of inhibition, the IC50, lay at 3.03 ± 0.1 µM.

`O=C(NNC(=O)c1cc(-c2ccc(Br)cc2)nc2ccccc12)/C(=C/c1ccc(Cl)cc1)NC(=O)c1ccccc1` [Compound 6b, (Z)-N-(3-(2-(2-(4-Bromophenyl)quinoline-4-carbonyl)hydrazinyl)-1-(4-chlorophenyl)-3-oxoprop-1-en-2-yl)benzamide] had a melting point of 185 to 187 °C. In the series with MCF-7 cell line (Homo sapiens, MCF7, 24 h), this compound had an IC50 of 8.29 ± 0.27 µM. Besides, the “fold more potent antiproliferative activity than the reference STU” value with MCF-7 cell line was 1.06–7.10 fold.

`CC(=O)Oc1c(Br)cc(/C=C(\NC(=O)c2ccccc2)C(=O)NNC(=O)c2cc(-c3ccc(Br)cc3)nc3ccccc23)cc1Br` [Compound 6g, (Z)-4-(2-Benzamido-3-(2-(2-(4-bromophenyl)quinoline-4-carbonyl)hydrazinyl)-3-oxoprop-1-enyl)-2,6-dibromophenyl acetate] gave a melting point of 181 to 183 °C. The same compound displayed an IC50 in the series on MCF-7 cell line (Homo sapiens, MCF7, 24 h) of 30.4 ± 0.98 µM.

The compound `COc1cc(/C=C(\NC(=O)c2ccccc2)C(=O)NNC(=O)c2cc(-c3ccc(Br)cc3)nc3ccccc23)cc(OC)c1OC` [Compound 6h, (Z)-N-(3-(2-(2-(4-Bromophenyl)quinoline-4-carbonyl)hydrazinyl)-3-oxo-1-(3,4,5-trimethoxyphenyl)prop-1-en-2-yl)benzamide] had a melting point of 169 to 171 °C. The IC50 in the series on MCF-7 cell line (Homo sapiens, MCF7, 24 h) was 15.6 ± 0.42 µM.

The term IC50 denotes the concentration that gives 50% inhibition. The melting point is the temperature, or range, at which the solid turns liquid.

The record behind these values is article PMC11305403, “Design, synthesis, and antiproliferative screening of new quinoline derivatives bearing a cis-vinyl triamide motif as apoptosis activators and EGFR-TK inhibitors” (RSC Advances, 2024).
